Measured values from article PMC4498326, “Assessing the Efficacy of Mdm2/Mdm4-Inhibiting Stapled Peptides Using Cellular Thermal Shift Assays” (Scientific Reports, 2015).
Read-outs that look alike come from different tables or passages of the source. Bridge positions count the residues as written; N and C are the ends. Square brackets hold non-standard residues; d marks the D form. Peptide text beside a SMILES is read from it. R8 = C=CCCCCCC[C@@](C)(N)C(=O)O; S5 = C=CCCC[C@](C)(N)C(=O)O

How the values were obtained:
Mdm4 [1] = target: T1, Mdm4 (Homo sapiens, UniProt O15151); test: Lysate CETSA, thermal stabilisation of Mdm4 in AML2 cell lysates; type: binding; design: endogenous in cells; host or cells: OCI/AML-2 (AML2) cells, pre-treated with MG132
T1 sequence (O15151 1-490): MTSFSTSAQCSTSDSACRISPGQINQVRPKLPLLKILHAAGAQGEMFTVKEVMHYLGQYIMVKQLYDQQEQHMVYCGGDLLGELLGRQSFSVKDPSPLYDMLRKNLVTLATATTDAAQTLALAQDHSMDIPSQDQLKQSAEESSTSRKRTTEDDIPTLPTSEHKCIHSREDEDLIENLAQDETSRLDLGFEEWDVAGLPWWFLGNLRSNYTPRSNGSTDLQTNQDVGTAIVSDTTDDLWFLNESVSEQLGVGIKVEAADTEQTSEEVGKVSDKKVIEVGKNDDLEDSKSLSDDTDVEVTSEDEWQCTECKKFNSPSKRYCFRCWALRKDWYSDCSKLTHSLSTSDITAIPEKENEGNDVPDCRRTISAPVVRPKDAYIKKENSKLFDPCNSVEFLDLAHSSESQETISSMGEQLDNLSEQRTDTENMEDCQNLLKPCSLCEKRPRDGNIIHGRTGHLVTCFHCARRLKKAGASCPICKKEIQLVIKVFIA
Procedure: (§1) Cells pre-treated with 10 μM MG132 for one hour were lysed in kinase buffer (25 mM Tris pH 7.4, 10 mM MgCl2, 2 mM DTT, 1x protease (Roche) and phosphatase inhibitor cocktails (Thermo Scientific)) by dounce homogenisation with a 2 ml Wheaton mortar and pestle. […] Following a 15 min incubation at room temperature with the drugs, the cell lysates were individually heated to the indicated temperatures for 2 min, cool at room temperature for 2 min, and placed on ice. Insoluble proteins were separated by centrifugation, and the soluble proteins were used for SDS PAGE and Western blotting for the indicated proteins. Three independent replicates were performed.
(§2) The relative signal intensities were plotted against temperature using Graphpad (Prism) and a variable slope sigmoidal curve was fitted by least squares for each data set using the following equation (1): [drawing 1]
(§3) Initial values for top and bottom plateaus were set at 1.0 and 0 respectively for curve fitting, while initial values for Tm50 and Hill Slope were automatically chosen. As the asymmetry of errors is small, errors were assumed to be symmetrical for statistical analyses.

Mdm2 [2] = target: T2, Mdm2 (Homo sapiens, UniProt Q00987); test: Whole cell CETSA, Mdm2
T2 sequence (Q00987 whole entry): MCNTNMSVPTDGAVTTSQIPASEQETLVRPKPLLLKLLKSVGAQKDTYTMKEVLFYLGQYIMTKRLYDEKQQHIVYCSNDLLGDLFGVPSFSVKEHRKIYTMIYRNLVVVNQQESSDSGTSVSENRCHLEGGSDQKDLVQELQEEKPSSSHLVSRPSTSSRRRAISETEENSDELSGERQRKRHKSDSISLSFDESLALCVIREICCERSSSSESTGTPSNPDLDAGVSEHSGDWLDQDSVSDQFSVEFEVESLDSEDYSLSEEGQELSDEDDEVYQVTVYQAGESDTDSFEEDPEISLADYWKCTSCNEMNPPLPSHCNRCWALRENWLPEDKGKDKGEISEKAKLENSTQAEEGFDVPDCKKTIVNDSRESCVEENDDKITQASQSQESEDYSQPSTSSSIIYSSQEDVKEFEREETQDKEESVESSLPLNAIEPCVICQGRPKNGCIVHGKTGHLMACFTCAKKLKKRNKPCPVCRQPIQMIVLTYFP
Procedure: (§4) Cells were pre-treated with 10 μM MG132 for one hour before a four hour treatment with the indicated drugs. They were then aliquoted for heating to different temperatures for 2 min, cooled at room temperature for 2 min and placed on ice. Kinase buffer was added to the cells, followed by lysis with three freeze/thaw cycles in liquid nitrogen. Insoluble proteins were separated by centrifugation, and the soluble proteins were used for SDS PAGE and Western blotting. Three independent experiments were performed.
as §2, §3

Mdm2 [3] = target: T2, Mdm2; test: Lysate CETSA, thermal stabilisation of Mdm2 in AML2 cell lysates; type: binding; design: endogenous in cells; host or cells: OCI/AML-2 (AML2) cells, pre-treated with MG132; conditions: Fig. 1a, 10 μM in 5 mg/ml AML2 cell lysates, three independent replicates
Procedure: as §1, §2, §3

Mdm2 [4] = target: T2, Mdm2; design: method as in 3 sources, ref 10 = [10]; PMID 23214419; doi:10.1021/cb3005148; Brown C. J. et al. Stapled Peptides with Improved Potency and Specificity That Activate p53 . ACS Chem. Biol . 8 , 506 – 512 ( 2013 ). 23214419 10.1021/cb3005148 ||| ref 11 = [11]; PMID 23946421; doi:10.1073/pnas; Chang Y. S. et al. Stapled α−helical peptide drug development: A potent dual inhibitor of MDM2 and MDMX for p53-dependent cancer therapy . Proc. Natl. Acad. Sci . 201303002 (2013). 10.1073/pnas .13030 ||| ref 6 = [6]; PMID 14704432; doi:10.1126/science.1092472; Vassilev L. T. et al. In vivo activation of the p53 pathway by small-molecule antagonists of MDM2 . Science 303 , 844 – 848 ( 2004 ). 14704432 10.1126/science.1092472; conditions: competition assay, cited from earlier work
Mdm4 [5] = target: T1, Mdm4; design: method as in 3 sources, ref 10 = [10]; PMID 23214419; doi:10.1021/cb3005148; Brown C. J. et al. Stapled Peptides with Improved Potency and Specificity That Activate p53 . ACS Chem. Biol . 8 , 506 – 512 ( 2013 ). 23214419 10.1021/cb3005148 ||| ref 11 = [11]; PMID 23946421; doi:10.1073/pnas; Chang Y. S. et al. Stapled α−helical peptide drug development: A potent dual inhibitor of MDM2 and MDMX for p53-dependent cancer therapy . Proc. Natl. Acad. Sci . 201303002 (2013). 10.1073/pnas .13030 ||| ref 6 = [6]; PMID 14704432; doi:10.1126/science.1092472; Vassilev L. T. et al. In vivo activation of the p53 pathway by small-molecule antagonists of MDM2 . Science 303 , 844 – 848 ( 2004 ). 14704432 10.1126/science.1092472; conditions: competition assay, cited from earlier work
[6] = target: Mdm2 (human (endogenous in OCI/AML-2)) (UniProt Q00987); test: cellular thermal shift assay (CETSA); lysate CETSA: peptides at 10 uM added to 5 mg/ml AML2 cell lysate (kinase buffer: 25 mM Tris pH 7.4, 10 mM MgCl2, 2 mM DTT), 15 min at room temperature, heated 2 min, soluble protein by Western blot; dTm50 against the control
Sequence of Mdm2 (human (endogenous in OCI/AML-2)) (Q00987 whole entry): as above

[7] = system: p53 responsive β-galactosidase reporter in T22 cells; test: T22 p53 β-galactosidase based reporter assay; type: cell-based; conditions: 18 h treatment, text points to Fig. 2a in Brown et al., 2013
Procedure: T22 cells, which were stably transfected with a p53 responsive β-galactosidase reporter, were seeded into 96-well plate at a cell density of 8000 cells per well[22]. Cells were maintained in Dulbecco’s Minimal Eagle Medium (DMEM) with 10% FBS and penicillin/streptomycin and incubated for 24 hours before treatment with the stapled peptides for 18 hours. β-galactosidase activity was assayed using the FluoReporter LacZ/Galactosidase Quantitation kit (Invitrogen) as per manufacturer’s instructions. Measurements were made using an Envision plate reader (Perkin Elmer). Experiments were carried out independently thrice.

Mdm4 [8] = target: T1, Mdm4; test: Whole cell CETSA, Mdm4; conditions: whole cells 25 μM
Procedure: as §4, §2, §3

[9] = target: Mdm4 (human (endogenous in OCI/AML-2)) (UniProt O15151); test: cellular thermal shift assay (CETSA); lysate CETSA: peptides at 10 uM added to 5 mg/ml AML2 cell lysate (kinase buffer: 25 mM Tris pH 7.4, 10 mM MgCl2, 2 mM DTT), 15 min at room temperature, heated 2 min, soluble protein by Western blot; dTm50 against the control
[10] = target: Mdm2 (human (endogenous in OCI/AML-2)) (UniProt Q00987); test: cellular thermal shift assay (CETSA); whole cell CETSA: OCI/AML-2 cells pre-treated with 10 uM MG132 for 1 h, then 25 uM Staplin-2 for 4 h, intact cells heated 2 min, lysed by freeze/thaw, soluble protein by Western blot; compared with the lysate CETSA
[11] = target: Mdm4 (human (endogenous in OCI/AML-2)) (UniProt O15151); test: as above
[12] = no reference number printed in the cell, footnote: IC50s are obtained from the references indicated

**Q.** For CC(C)C[C@H](NC(=O)c1ccc2c(c1)C(=O)OC21c2ccc(O)cc2Oc2cc(O)ccc21)C(=O)N[C@H](C(=O)N[C@@H](Cc1ccccc1)C(=O)N[C@]1(C)CCCCCCC=CCCC[C@@](C)(C(=O)N[C@@H](CO)C(=O)N[C@@H](C)C(=O)N[C@@H](C)C(N)=O)NC(=O)[C@H](CC2CCC2)NC(=O)[C@H](CCC(N)=O)NC(=O)[C@H](C)NC(=O)[C@H](Cc2c[nH]c3ccccc23)NC(=O)[C@H](Cc2ccc(O)cc2)NC(=O)[C@H](CCC(=O)O)NC1=O)[C@@H](C)O [ATSP-7041 ^FAM], which “Mdm4 ΔTm50 (±95% CI)” value (Mdm4 [1]; Fig. 2c, labelled and unlabelled stapled peptides, AML2 cell extracts, 15 min) is on record?
**A.** The value was 1.11 (1.65) °C.

**Q.** Which results are given for COc1ccc(C2=N[C@@H](c3ccc(Cl)cc3)[C@@H](c3ccc(Cl)cc3)N2C(=O)N2CCNC(=O)C2)c(OC(C)C)c1 [Nutlin-3, nutlin-3, reference compound]?
**A.** Mdm2 ΔΔTm50 (±95% CI), lysate versus whole cell (Mdm2 [2]; Fig. 3a, 10 μM): 0.24 ± 1.42 °C; Mdm2: Tm50 (mean +95% CI −95% CI) (Mdm2 [3]; 15 min room temperature, heated 2 min, Western blot): 55.9 °C

**Q.** What does the source list for CC(=O)N[C@H](C(=O)N[C@@H](CO)C(=O)N[C@@H](C)C(=O)N[C@]1(C)CCCCCCC=CCCC[C@@](C)(C(N)=O)NC(=O)[C@H](C)NC(=O)[C@H](CC(C)C)NC(=O)[C@H](C)NC(=O)[C@H](C)NC(=O)[C@H](Cc2ccc(O)cc2)NC(=O)[C@H](CCC(=O)O)NC1=O)[C@@H](C)O [Staplin-Control, reference compound] (Ac-TSA[R8]EYAALA[S5]-NH2; staple 4-11)?
**A.** IC50 (Mdm2 [4]; [12]): > 10 µM; IC50 (Mdm4 [5]; [12]): > 10 µM

**Q.** Which IC50 (Mdm4 [5]) does the source give for CC(=O)N[C@H](C(=O)N[C@@H](CO)C(=O)N[C@@H](Cc1ccccc1)C(=O)N[C@]1(C)CCCCCCC=CCCC[C@@](C)(C(N)=O)NC(=O)[C@H](CC(C)C)NC(=O)[C@H](CC(C)C)NC(=O)[C@H](C)NC(=O)[C@H](Cc2c[nH]c3ccccc23)NC(=O)[C@H](Cc2ccc(O)cc2)NC(=O)[C@H](CCC(=O)O)NC1=O)[C@@H](C)O [Staplin] here?
**A.** Its IC50 is 0.66 ± 0.06 µM.

**Q.** What about the ΔTm at 10 µM (Mdm2 [3]; human, 0.25 h, versus control, read-out: Mdm2: ΔTm50 (±95% CI)) of the same compound?
**A.** The ΔTm at 10 µM was 6.76 °C.

**Q.** And the ΔTm at 10 µM (Mdm4 [1]; human, 0.25 h, Fig. 1b, 10 μM in 5 mg/ml AML2 cell lysates, versus control, three independent replicates, read-out: Mdm4: ΔTm50 (±95% CI))?
**A.** The ΔTm at 10 µM was 5.48 °C.

**Q.** Which thermal shift (ΔTm50) [6] does the source give for ATSP-7041 (peptide) here?
**A.** Its thermal shift (ΔTm50) is 1.52 °C.

**Q.** What does the source list for “Ac-^1LTFXrEYWAQ(Cba)XSSAA^14-NH2 (sidechain bridge or staple) [ATSP-7041, reference compound]”?
**A.** p53 activation measured by β-galactosidase activity with increasing concentrations [7]: correspondingly increasing p53 activity and plateaued off at maxima; IC50 (Mdm4 [5]): 2.31 µM

**Q.** With “Ac-^1TSFXrEYW(6Cl)WALLXs^11-NH2 (sidechain bridge or staple) [Staplin-2]” as the compound, how does the “p53 activation measured by β-galactosidase activity with increasing concentrations” value [7] read?
**A.** Its value is “correspondingly increasing p53 activity and plateaued off at maxima”.

**Q.** What about the IC50 (Mdm2 [4]) of the same compound?
**A.** Its IC50 is 0.32 ± 0.02 µM.

**Q.** What about the IC50 (Mdm4 [5]) of the same compound?
**A.** Its IC50 is 3.49 ± 0.63 µM.

**Q.** What about the “ΔΔTm50 (±95% CI) Mdm2, lysate versus whole cell” value (Mdm2 [2]; Fig. 3b, whole cells 25 μM) of the same compound?
**A.** The value was 4.01 °C.

**Q.** What about the “mean thermal shift from the whole cell CETSA as % of the mean thermal shift for the cell lysate CETSA, Mdm2” value (Mdm2 [2]; whole cells 25 μM) of the same compound?
**A.** Its value is 40%.

**Q.** What about the “ΔΔTm50 (±95% CI) Mdm4, lysate versus whole cell” value (Mdm4 [8]; Fig. 3b) of the same compound?
**A.** Its value is 3.58 °C.

**Q.** What about the “mean thermal shift from the whole cell CETSA as % of the mean thermal shift for the cell lysate CETSA, Mdm4” value (Mdm4 [8]) of the same compound?
**A.** Its value is 33%.

**Q.** And the “Mdm2: ΔTm50 (±95% CI)” value (Mdm2 [3]; versus control)?
**A.** The value was 6.58 °C.

**Q.** What about the “Mdm4: ΔTm50 (±95% CI)” value (Mdm4 [1]; Fig. 1b, 10 μM in 5 mg/ml AML2 cell lysates, versus control, three independent replicates) of the same compound?
**A.** The value was 5.44 °C.

**Q.** For FAM-labelled ATSP-7041 (peptide), which decrease in thermal shift against unlabelled ATSP-7041 [9] is on record?
**A.** Its decrease in thermal shift against unlabelled ATSP-7041 is 0.4 °C.

**Q.** What does the source list for FAM-labelled Staplin-2 (peptide)?
**A.** thermal shift less than that of unlabelled Staplin-2 [6]: 2.71 °C; thermal shift less than that of unlabelled Staplin-2 [9]: 2.99 °C

**Q.** Which ΔTm50 [6] does the source give for Staplin (peptide) here?
**A.** Its ΔTm50 is 6.76 °C.

**Q.** And the ΔTm50 [9]?
**A.** The ΔTm50 was 5.48 °C.

**Q.** Which mean thermal shift in whole cell CETSA as percent of that in cell lysate CETSA [10] does the source give for Staplin-2 (peptide) here?
**A.** Its mean thermal shift in whole cell CETSA as percent of that in cell lysate CETSA is 40%.

**Q.** What about the ΔΔTm50 (whole cell CETSA against cell lysate CETSA) [10] of the same compound?
**A.** Its ΔΔTm50 (whole cell CETSA against cell lysate CETSA) is 4.01 °C.

**Q.** What about the mean thermal shift in whole cell CETSA as percent of that in cell lysate CETSA [11] of the same compound?
**A.** Its mean thermal shift in whole cell CETSA as percent of that in cell lysate CETSA is 33%.

**Q.** And the ΔΔTm50 (whole cell CETSA against cell lysate CETSA) [11]?
**A.** The ΔΔTm50 (whole cell CETSA against cell lysate CETSA) was 3.58 °C.

**Q.** What about the ΔTm50 [6] of the same compound?
**A.** The ΔTm50 was 6.58 °C.

**Q.** And the ΔTm50 [9]?
**A.** The ΔTm50 was 5.44 °C.
